Test results taken from PubChem BioAssay (NCI).
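Each compound was tested at five concentrations against cells in 96-well plates for 48 hours. GI50 marks 50% less growth. TGI denotes the concentration required for complete inhibition of growth.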

How the values were obtained:
Test in all cases: growth of human tumour cells (NCI), 48 h
NCI-H226 lung = system: NCI-H226 lung
NCI-H460 lung = system: NCI-H460 lung
SNB-75 CNS = system: SNB-75 CNS
MALME-3M melanoma = system: MALME-3M melanoma
NCI/ADR-RES ovarian = system: NCI/ADR-RES ovarian
T-47D breast = system: T-47D breast
NCI-H23 lung = system: NCI-H23 lung
NCI-H522 lung = system: NCI-H522 lung
DU-145 prostate = system: DU-145 prostate
SK-MEL-5 melanoma = system: SK-MEL-5 melanoma
SNB-19 CNS = system: SNB-19 CNS
HL-60(TB) leukemia = system: HL-60(TB) leukemia
OVCAR-3 ovarian = system: OVCAR-3 ovarian
EKVX NSCLC = system: EKVX NSCLC
HS 578T breast = system: HS 578T breast
RPMI-8226 leukemia = system: RPMI-8226 leukemia
SK-OV-3 ovarian = system: SK-OV-3 ovarian
SF-539 CNS = system: SF-539 CNS
K-562 leukemia = system: K-562 leukemia
SF-295 CNS = system: SF-295 CNS
MCF7 breast = system: MCF7 breast
HT29 colon = system: HT29 colon
UACC-62 melanoma = system: UACC-62 melanoma
SK-MEL-28 melanoma = system: SK-MEL-28 melanoma
PC-3 prostate = system: PC-3 prostate
SF-268 CNS = system: SF-268 CNS
HCC-2998 colon = system: HCC-2998 colon
UACC-257 melanoma = system: UACC-257 melanoma
CCRF-CEM leukemia = system: CCRF-CEM leukemia
SR leukemia = system: SR leukemia
A549 NSCLC = system: A549 NSCLC
M14 melanoma = system: M14 melanoma
HCT-15 colon = system: HCT-15 colon
MOLT-4 leukemia = system: MOLT-4 leukemia
SN12C renal = system: SN12C renal
TK-10 renal = system: TK-10 renal
KM12 colon = system: KM12 colon
MDA-MB-435 = system: MDA-MB-435
RXF 393 renal = system: RXF 393 renal
SW-620 colon = system: SW-620 colon
BT-549 breast = system: BT-549 breast
LOX IMVI melanoma = system: LOX IMVI melanoma
OVCAR-8 ovarian = system: OVCAR-8 ovarian
HOP-92 NSCLC = system: HOP-92 NSCLC
MDA-MB-231 breast = system: MDA-MB-231 breast
HOP-62 NSCLC = system: HOP-62 NSCLC
COLO 205 colon = system: COLO 205 colon
CAKI-1 renal = system: CAKI-1 renal
ACHN renal = system: ACHN renal
HCT-116 colon = system: HCT-116 colon
U251 CNS = system: U251 CNS
A498 renal = system: A498 renal
OVCAR-4 ovarian = system: OVCAR-4 ovarian
SK-MEL-2 melanoma = system: SK-MEL-2 melanoma
786-0 renal = system: 786-0 renal
UO-31 renal = system: UO-31 renal
OVCAR-5 ovarian = system: OVCAR-5 ovarian
IGROV1 ovarian = system: IGROV1 ovarian

CCN1CCN(Cc2ccc(NC(=O)c3nc4ccc5[nH]ncc5c4c4c3CCCC4)cc2C(F)(F)F)CC1
GI50 (NCI-H226 lung): 2980 nM | TGI (NCI-H226 lung): 13600 nM | GI50 (NCI-H460 lung): 935 nM | TGI (NCI-H460 lung): 1780 nM | GI50 (SNB-75 CNS): 1060 nM | TGI (SNB-75 CNS): 7170 nM | GI50 (MALME-3M melanoma): 827 nM | TGI (MALME-3M melanoma): 1590 nM | GI50 (NCI/ADR-RES ovarian): 1080 nM | TGI (NCI/ADR-RES ovarian): 2820 nM | GI50 (T-47D breast): 854 nM | TGI (T-47D breast): 1920 nM | GI50 (NCI-H23 lung): 1760 nM | TGI (NCI-H23 lung): 7210 nM | GI50 (NCI-H522 lung): 882 nM | TGI (NCI-H522 lung): 1850 nM | GI50 (DU-145 prostate): 1250 nM | TGI (DU-145 prostate): 2980 nM | GI50 (SK-MEL-5 melanoma): 903 nM | TGI (SK-MEL-5 melanoma): 1630 nM | GI50 (SNB-19 CNS): 931 nM | TGI (SNB-19 CNS): 2010 nM | GI50 (HL-60(TB) leukemia): 983 nM | TGI (HL-60(TB) leukemia): 1990 nM | GI50 (OVCAR-3 ovarian): 997 nM | TGI (OVCAR-3 ovarian): 1920 nM | GI50 (EKVX NSCLC): 2090 nM | TGI (EKVX NSCLC): 8810 nM | GI50 (HS 578T breast): 969 nM | TGI (HS 578T breast): 2130 nM | GI50 (RPMI-8226 leukemia): 1070 nM | TGI (RPMI-8226 leukemia): 2610 nM | GI50 (SK-OV-3 ovarian): 7250 nM | TGI (SK-OV-3 ovarian): 14200 nM | GI50 (SF-539 CNS): 870 nM | TGI (SF-539 CNS): 1600 nM | GI50 (K-562 leukemia): 827 nM | TGI (K-562 leukemia): 2120 nM | GI50 (SF-295 CNS): 888 nM | TGI (SF-295 CNS): 1800 nM | GI50 (MCF7 breast): 884 nM | TGI (MCF7 breast): 1840 nM | GI50 (HT29 colon): 923 nM | TGI (HT29 colon): 1910 nM | GI50 (UACC-62 melanoma): 922 nM | TGI (UACC-62 melanoma): 1880 nM | GI50 (SK-MEL-28 melanoma): 899 nM | TGI (SK-MEL-28 melanoma): 1650 nM | GI50 (PC-3 prostate): 1300 nM | TGI (PC-3 prostate): 4200 nM | GI50 (SF-268 CNS): 2300 nM | TGI (SF-268 CNS): 9200 nM | GI50 (HCC-2998 colon): 816 nM | TGI (HCC-2998 colon): 1590 nM | GI50 (UACC-257 melanoma): 938 nM | TGI (UACC-257 melanoma): 1840 nM | GI50 (CCRF-CEM leukemia): 1150 nM | TGI (CCRF-CEM leukemia): 3260 nM | GI50 (SR leukemia): 1190 nM | TGI (SR leukemia): 2650 nM | GI50 (A549 NSCLC): 1320 nM | TGI (A549 NSCLC): 3800 nM | GI50 (M14 melanoma): 885 nM | TGI (M14 melanoma): 1800 nM | GI50 (HCT-15 colon): 950 nM | TGI (HCT-15 colon): 1960 nM | GI50 (MOLT-4 leukemia): 1010 nM | TGI (MOLT-4 leukemia): 2280 nM | GI50 (SN12C renal): 865 nM | TGI (SN12C renal): 1630 nM | GI50 (TK-10 renal): 1830 nM | TGI (TK-10 renal): 6790 nM | GI50 (KM12 colon): 988 nM | TGI (KM12 colon): 1940 nM | GI50 (MDA-MB-435): 918 nM | TGI (MDA-MB-435): 1670 nM | GI50 (RXF 393 renal): 738 nM | TGI (RXF 393 renal): 1430 nM | GI50 (SW-620 colon): 969 nM | TGI (SW-620 colon): 1890 nM | GI50 (BT-549 breast): 6330 nM | TGI (BT-549 breast): 13000 nM | GI50 (LOX IMVI melanoma): 836 nM | TGI (LOX IMVI melanoma): 1550 nM | GI50 (OVCAR-8 ovarian): 1010 nM | TGI (OVCAR-8 ovarian): 2050 nM | GI50 (HOP-92 NSCLC): 1610 nM | TGI (HOP-92 NSCLC): 7650 nM | GI50 (MDA-MB-231 breast): 879 nM | TGI (MDA-MB-231 breast): 1660 nM | GI50 (HOP-62 NSCLC): 815 nM | TGI (HOP-62 NSCLC): 1650 nM | GI50 (COLO 205 colon): 861 nM | TGI (COLO 205 colon): 1680 nM | GI50 (CAKI-1 renal): 976 nM | TGI (CAKI-1 renal): 2420 nM | GI50 (ACHN renal): 861 nM | TGI (ACHN renal): 1560 nM | GI50 (HCT-116 colon): 870 nM | TGI (HCT-116 colon): 1700 nM | GI50 (U251 CNS): 883 nM | TGI (U251 CNS): 1630 nM | GI50 (A498 renal): 6890 nM | TGI (A498 renal): 14400 nM | GI50 (OVCAR-4 ovarian): 1070 nM | TGI (OVCAR-4 ovarian): 2630 nM | GI50 (SK-MEL-2 melanoma): 850 nM | TGI (SK-MEL-2 melanoma): 1900 nM | GI50 (786-0 renal): 886 nM | TGI (786-0 renal): 1650 nM | GI50 (UO-31 renal): 729 nM | TGI (UO-31 renal): 1400 nM | GI50 (OVCAR-5 ovarian): 1480 nM | TGI (OVCAR-5 ovarian): 5460 nM | GI50 (IGROV1 ovarian): 892 nM | TGI (IGROV1 ovarian): 1720 nM
